Source: US9763445B2, “Safened herbicidal compositions comprising a pyridine carboxylic acid herbicide” (Dow AgroSciences, LLC, priority 2014, dated 2017)

Legend:
[1] = test system: pigweed (AMARE); assay: Postemergence greenhouse trial, % visual injury on pigweed; type: in vivo, Amaranthus retroflexus; conditions: for % visual injury, Ob / % visual injury, observed (Ob): AMARE
How it was run: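 Injury was scored visually (0 = none, 100 = complete kill) 20–22 d after track-sprayer application at 187 L/ha, compared with solvent-sprayed controls. Test plants at the 2–3 true leaf stage; herbicide (g ae/ha) plus cloquintocet-mexyl safener (g ai/ha) in crop-oil-containing spray; expected mixture response by Colby.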

[2] = test system: common poppy (PAPRH); assay: Postemergence greenhouse trial, % visual injury on common poppy; type: in vivo, Papaver rhoeas; conditions: for % visual injury, Ob / % visual injury, observed (Ob): PAPRH
How it was run: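 Herbicide rates g ae/ha, safener (cloquintocet-mexyl) rates g ai/ha; spray carrier 1.5% v/v crop oil concentrate, 187 L/ha, 2nd–3rd leaf stage. Rating: visual % injury at 20-22 d.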

[3] = test system: spring barley (HORVS); assay: Postemergence greenhouse trial, % visual injury on spring barley; type: in vivo, Hordeum vulgare
How it was run: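 Greenhouse crops at second to third true leaf stage sprayed postemergence at 187 L/ha with herbicide (g ae/ha) plus safener (g ai/ha) in acetone/DMSO diluted into 1.5% v/v Agri-dex. Injury scored visually versus solvent-blank controls after 20-22 d, 0 (none) to 100% (complete kill); expected mixture effects by Colby's equation.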

[4] = compound 0 g/ha, CQC-m 4.375 g/ha
[5] = compound 0 g/ha, CQC-m 8.75 g/ha
[6] = compound 0 g/ha, CQC-m 17.5 g/ha

CCCCCC(C)OC(=O)COc1ccc(Cl)c2cccnc12 (stereo not drawn) [CQC-m, cloquintocet-mexyl, reference compound]
0%: % visual injury, Ob ([1]; 4.375 g/ha, applied alone) | % visual injury, Ob ([1]; 8.75 g/ha, applied alone) | % visual injury, Ob ([1]; 17.5 g/ha, applied alone) | % visual injury, Ob ([1]; 35 g/ha, applied alone) | % visual injury, Ob ([1]; 70 g/ha, applied alone) | % visual injury, Ob ([1]; compound 0, CQC-m 4.375 g/ha) | % visual injury, Ob ([1]; compound 0, CQC-m 8.75 g/ha) | % visual injury, Ob ([1]; compound 0, CQC-m 17.5 g/ha) | % visual injury, Ob ([1]; compound 0, CQC-m 35 g/ha) | % visual injury, Ob ([1]; compound 0, CQC-m 70 g/ha) | % visual injury, Ob [1, 4] | % visual injury, Ob [1, 5] | % visual injury, Ob [1, 6] | % visual injury, Ob ([1]; compound 0 g/ha, CQC-m 35 g/ha) | % visual injury, Ob ([1]; compound 0 g/ha, CQC-m 70 g/ha) | % visual injury, observed (Ob) ([1]; safener alone 2.5 g/ha) | % visual injury, observed (Ob) ([1]; safener alone 5 g/ha) | % visual injury, observed (Ob) ([1]; safener alone 10 g/ha) | % visual injury, observed (Ob) ([1]; safener alone 20 g/ha) | pest or weed control at 4.375 g/ha ([1]; Amaranthus retroflexus, post-emergence, alone, 4.375 g/ha, read-out: % visual injury, Ob) | pest or weed control at 8.75 g/ha ([1]; Amaranthus retroflexus, post-emergence, alone, 8.75 g/ha, read-out: % visual injury, Ob) | pest or weed control at 17.5 g/ha ([1]; Amaranthus retroflexus, post-emergence, alone, 17.5 g/ha, read-out: % visual injury, Ob) | pest or weed control at 20 g/ha ([1]; Amaranthus retroflexus, post-emergence, alone, 20 g/ha, read-out: % visual injury, Ob) | pest or weed control at 35 g/ha ([1]; Amaranthus retroflexus, post-emergence, alone, 35 g/ha, read-out: % visual injury, Ob) | pest or weed control at 40 g/ha ([1]; Amaranthus retroflexus, post-emergence, alone, 40 g/ha, read-out: % visual injury, Ob) | pest or weed control at 70 g/ha ([1]; Amaranthus retroflexus, post-emergence, alone, 70 g/ha, read-out: % visual injury, Ob) | pest or weed control at 80 g/ha ([1]; Amaranthus retroflexus, post-emergence, alone, 80 g/ha, read-out: % visual injury, Ob) | % visual injury, Δ ([1]; alone, 35 g/ha) | % visual injury, Ob ([2]; 4.375 g/ha, applied alone) | % visual injury, Ob ([2]; 8.75 g/ha, applied alone) | % visual injury, Ob ([2]; 17.5 g/ha, applied alone) | % visual injury, Ob ([2]; 35 g/ha, applied alone) | % visual injury, Ob ([2]; 70 g/ha, applied alone) | % visual injury, Ob ([2]; compound 0, CQC-m 4.375 g/ha) | % visual injury, Ob ([2]; compound 0, CQC-m 8.75 g/ha) | % visual injury, Ob ([2]; compound 0, CQC-m 17.5 g/ha) | % visual injury, Ob ([2]; compound 0, CQC-m 35 g/ha) | % visual injury, Ob ([2]; compound 0, CQC-m 70 g/ha) | % visual injury, Ob [2, 4] | % visual injury, Ob [2, 5] | % visual injury, Ob [2, 6] | % visual injury, Ob ([2]; compound 0 g/ha, CQC-m 35 g/ha) | % visual injury, Ob ([2]; compound 0 g/ha, CQC-m 70 g/ha) | % visual injury, observed (Ob) ([2]; compound 8 0 + CQC-m 4.375 g/ha) | % visual injury, observed (Ob) ([2]; compound 8 0 + CQC-m 8.75 g/ha) | % visual injury, observed (Ob) ([2]; compound 8 0 + CQC-m 17.5 g/ha) | % visual injury, observed (Ob) ([2]; compound 8 0 + CQC-m 35 g/ha) | % visual injury, observed (Ob) ([2]; compound 8 0 + CQC-m 70 g/ha) | pest or weed control at 4.375 g/ha ([2]; Papaver rhoeas, post-emergence, alone, 4.375 g/ha, read-out: % visual injury, Ob) | pest or weed control at 8.75 g/ha ([2]; Papaver rhoeas, post-emergence, alone, 8.75 g/ha, read-out: % visual injury, Ob) | pest or weed control at 17.5 g/ha ([2]; Papaver rhoeas, post-emergence, alone, 17.5 g/ha, read-out: % visual injury, Ob) | pest or weed control at 35 g/ha ([2]; Papaver rhoeas, post-emergence, alone, 35 g/ha, read-out: % visual injury, Ob) | pest or weed control at 70 g/ha ([2]; Papaver rhoeas, post-emergence, alone, 70 g/ha, read-out: % visual injury, Ob) | % visual injury, Ob ([3]; HORVS, 4.375 g/ha, applied alone) | % visual injury, Ob ([3]; HORVS, 8.75 g/ha, applied alone) | % visual injury, Ob ([3]; HORVS, 17.5 g/ha, applied alone) | % visual injury, Ob ([3]; HORVS, 35 g/ha, applied alone) | % visual injury, Ob ([3]; HORVS, 70 g/ha, applied alone) | % visual injury, Ob ([3]; HORVS, compound 0, CQC-m 4.375 g/ha) | % visual injury, Ob ([3]; HORVS, compound 0, CQC-m 8.75 g/ha) | % visual injury, Ob ([3]; HORVS, compound 0, CQC-m 17.5 g/ha) | % visual injury, Ob ([3]; HORVS, compound 0, CQC-m 35 g/ha) | % visual injury, Ob ([3]; HORVS, compound 0, CQC-m 70 g/ha) | % visual injury, Ob ([3]; HORVS, compound 0 g/ha, CQC-m 4.375 g/ha) | % visual injury, Ob ([3]; HORVS, compound 0 g/ha, CQC-m 8.75 g/ha) | % visual injury, Ob ([3]; HORVS, compound 0 g/ha, CQC-m 17.5 g/ha) | % visual injury, Ob ([3]; HORVS, compound 0 g/ha, CQC-m 35 g/ha) | % visual injury, Ob ([3]; HORVS, compound 0 g/ha, CQC-m 70 g/ha) | % visual injury, observed (Ob) ([3]; HORVS, compound 8 0 + CQC-m 4.375 g/ha) | % visual injury, observed (Ob) ([3]; HORVS, compound 8 0 + CQC-m 8.75 g/ha) | % visual injury, observed (Ob) ([3]; HORVS, compound 8 0 + CQC-m 17.5 g/ha) | % visual injury, observed (Ob) ([3]; HORVS, compound 8 0 + CQC-m 35 g/ha) | % visual injury, observed (Ob) ([3]; HORVS, compound 8 0 + CQC-m 70 g/ha) | % visual injury, Ob ([3]; alone, 4.375 g/ha) | % visual injury, Ob ([3]; alone, 8.75 g/ha) | % visual injury, Ob ([3]; alone, 17.5 g/ha) | % visual injury, Ob ([3]; alone, 20 g/ha) | % visual injury, Ob ([3]; alone, 35 g/ha)
